Values quoted from earlier work as cited in patent US20150313913A1, “POSITIVE ALLOSTERIC MODULATORS OF THE GABA-A RECEPTOR IN THE TREATMENT OF AUTISM” (UNIVERSITY OF WASHINGTON THROUGH ITS CENTER FOR …, priority 2013, published 2015).
Where two headings read alike, the source gives them in different places.

How the values were obtained:
GABA-A receptor = conditions: cited from earlier work; for Effect at GABA-A receptor: Table 1, exemplary benzodiazepines
[1] = cited from earlier work; for Dose in humans for anti-anxiety, anti-convulsive, or sedative effects (dose range, typical or average dose): Table 1, values not marked *; for Dose in humans for anti-anxiety, anti-convulsive, or sedative effects, per day: Table 1, typical daily dose
[2] = Table 4, exemplary non-BDZ GABA-A enhancers

## Cc1nnc2n1-c1ccc(Cl)cc1C(c1ccccc1)=NC2 [Alprazolam]
GABA-A receptor
  Effect at GABA-A receptor: Full agonist
[1]
  Dose in humans for anti-anxiety, anti-convulsive, or sedative effects (dose range, typical or average dose): dose range of 0.5 to 3.0 mg

## CN(C(=O)CNC(=O)[C@@H](N)CCCCN)c1ccc(Cl)cc1C(=O)c1ccccc1 [Avizafone]
GABA-A receptor
  Effect at GABA-A receptor: Full agonist
[1]; Table 1
  Dose in humans for anti-anxiety, anti-convulsive, or sedative effects: 3.5 mg/kg

## CC(C)(C)OC(=O)c1ncn2c1[C@@H]1CCCN1C(=O)c1c(Br)cccc1-2 [Bretazenil]
GABA-A receptor
  Effect at GABA-A receptor: Partial Agonist High potency
[1]; Table 1, values marked *
  Dose in humans for anti-anxiety, anti-convulsive, or sedative effects: equivalent dose to 10 mg diazepam: 0.5 mg

## O=C1CN=C(c2ccccn2)c2cc(Br)ccc2N1 [Bromazepam]
GABA-A receptor
  Effect at GABA-A receptor: Agonist
[1]; Table 1, values marked *
  Dose in humans for anti-anxiety, anti-convulsive, or sedative effects: equivalent dose to 10 mg diazepam: 5 to 6 mg

## Cc1nnc2n1-c1sc(Br)cc1C(c1ccccc1Cl)=NC2 [Brotizolam]
GABA-A receptor
  Effect at GABA-A receptor: Agonist
[1]; Table 1, Sedative
  Dose in humans, sedative: 0.125 to 25 mg
[1]; Table 1, anti-anxiety
  Dose in humans, anti-anxiety: 80 to 100 mg
[1]; Table 1, values marked *
  Dose in humans for anti-anxiety, anti-convulsive, or sedative effects: equivalent dose to 10 mg diazepam: 0.25 mg

## CNC1=Nc2ccc(Cl)cc2C(c2ccccc2)=[N+]([O-])C1 [Chlordiazepoxide]
GABA-A receptor
  Effect at GABA-A receptor: Agonist Long- acting
[1]; Table 1, values marked *
  Dose in humans for anti-anxiety, anti-convulsive, or sedative effects: equivalent dose to 10 mg diazepam: 25 mg

## N#CCCN1C(=O)C(O)N=C(c2ccccc2F)c2cc(Cl)ccc21 (centres unmarked) [Cinolazepam]
GABA-A receptor
  Effect at GABA-A receptor: Agonist
[1]; Table 1, values marked *
  Dose in humans for anti-anxiety, anti-convulsive, or sedative effects: equivalent dose to 10 mg diazepam: 40 mg

## O=C(O)C1N=C(c2ccccc2)c2cc(Cl)ccc2NC1=O (centres unmarked) [Clorazepate]
GABA-A receptor
  Effect at GABA-A receptor: Partial Agonist (Prodrug)
[1]
  Dose in humans for anti-anxiety, anti-convulsive, or sedative effects, per day: 15 to 60 mg/day
[1]; Table 1, values marked *
  Dose in humans for anti-anxiety, anti-convulsive, or sedative effects: equivalent dose to 10 mg diazepam: 15 mg

## CCc1cc2c(s1)N(C)C(=O)CN=C2c1ccccc1Cl [Clotiazepam]
GABA-A receptor
  Effect at GABA-A receptor: Full agonist
[1]; Table 1, values marked *
  Dose in humans for anti-anxiety, anti-convulsive, or sedative effects: equivalent dose to 10 mg diazepam: 5 to 10 mg

## O=C1CN2CCOC2(c2ccccc2Cl)c2cc(Cl)ccc2N1 (centres unmarked) [Cloxazolam]
GABA-A receptor
  Effect at GABA-A receptor: Agonist (Prodrug)
[1]; Table 1, values marked *
  Dose in humans for anti-anxiety, anti-convulsive, or sedative effects: equivalent dose to 10 mg diazepam: 1 mg

## O=C1CN=C(c2ccccc2Cl)c2cc(Cl)ccc2N1 [Delorazepam]
GABA-A receptor
  Effect at GABA-A receptor: Agonist
[1]; Table 1, values marked *
  Dose in humans for anti-anxiety, anti-convulsive, or sedative effects: equivalent dose to 10 mg diazepam: 1 mg

## CN1C(=O)CN=C(c2ccccc2)c2cc(Cl)ccc21 [Diazepam]
GABA-A receptor
  Effect at GABA-A receptor: Agonist Long- acting
[1]; 2-4 times daily
  dose typically administered to achieve an anxiolytic or anti-convulsive effect: 2 to 10 mg
[1]; Table 1, values marked *
  Dose in humans for anti-anxiety, anti-convulsive, or sedative effects: equivalent dose to 10 mg diazepam: 10 mg

## Clc1ccc2c(c1)C(c1ccccc1)=NCc1nncn1-2 [Estazolam]
GABA-A receptor
  Effect at GABA-A receptor: Agonist
[1]; Table 1, values marked *
  Dose in humans for anti-anxiety, anti-convulsive, or sedative effects: equivalent dose to 10 mg diazepam: 2 mg

## CN1CCN(C(=O)O[C@H]2c3nccnc3C(=O)N2c2ccc(Cl)cn2)CC1 [Eszopiclone]
GABA-A receptor; [2]
  Effect at GABA receptor: Agonist
[1]; Table 4, values marked *
  Dose in humans for anti-anxiety, anti-convulsive, or sedative effects: equivalent dose to 10 mg diazepam: 3 mg

## CCOC(=O)C1N=C(c2ccccc2F)c2cc(Cl)ccc2NC1=O (centres unmarked) [Ethyl loflazepate]
GABA-A receptor
  Effect at GABA-A receptor: Agonist (Prodrug)
[1]; Table 1, values marked *
  Dose in humans for anti-anxiety, anti-convulsive, or sedative effects: equivalent dose to 10 mg diazepam: 2 mg

## CCc1cc2c(s1)-n1c(C)nnc1CN=C2c1ccccc1Cl [Etizolam]
GABA-A receptor
  Effect at GABA-A receptor: Full agonist
[1]; Table 1, values marked *
  Dose in humans for anti-anxiety, anti-convulsive, or sedative effects: equivalent dose to 10 mg diazepam: 0.5 to 1 mg

## CN1C(=O)CN=C(c2ccccc2F)c2cc([N+](=O)[O-])ccc21 [Flunitrazepam]
GABA-A receptor
  Effect at GABA-A receptor: Agonist
[1]; Table 1, values marked *
  Dose in humans for anti-anxiety, anti-convulsive, or sedative effects: equivalent dose to 10 mg diazepam: 1 mg

## CCN(CC)CCN1C(=O)CN=C(c2ccccc2F)c2cc(Cl)ccc21 [Flurazepam]
GABA-A receptor
  Effect at GABA-A receptor: Partial agonist
[1]; Table 1, values marked *
  Dose in humans for anti-anxiety, anti-convulsive, or sedative effects: equivalent dose to 10 mg diazepam: 15 to 30 mg

## O=C1CN=C(c2ccccc2F)c2cc(Cl)ccc2N1CC1CC1 [Flutoprazepam]
GABA-A receptor
  Effect at GABA-A receptor: Agonist
[1]; Table 1, values marked *
  Dose in humans for anti-anxiety, anti-convulsive, or sedative effects: equivalent dose to 10 mg diazepam: 2 to 3 mg

## CP(C)(=O)CN1C(=O)CN=C(c2ccccc2)c2cc(Cl)ccc21 [Fosazepam]
GABA-A receptor
  Effect at GABA-A receptor: Agonist Low potency
[1]; Table 1, values marked *
  Dose in humans for anti-anxiety, anti-convulsive, or sedative effects: equivalent dose to 10 mg diazepam: 60 mg

## O=C1CN=C(c2ccccc2)c2cc(Cl)ccc2N1CC(F)(F)F [Halazepam]
GABA-A receptor
  Effect at GABA-A receptor: Agonist
[1]; Table 1, values marked *
  Dose in humans for anti-anxiety, anti-convulsive, or sedative effects: equivalent dose to 10 mg diazepam: 20 to 40 mg

## CC1=CC(=O)N2CC(=O)N(C)c3ccc(Cl)cc3C2(c2ccccc2)O1 (centres unmarked) [Ketazolam]
GABA-A receptor
  Effect at GABA-A receptor: Agonist
[1]; Table 1, values marked *
  Dose in humans for anti-anxiety, anti-convulsive, or sedative effects: equivalent dose to 10 mg diazepam: 15 to 30 mg

## CN1CCN(/C=C2\N=C3CN=C(c4ccccc4Cl)c4cc([N+](=O)[O-])ccc4N3C2=O)CC1 [Loprazolam]
GABA-A receptor
  Effect at GABA-A receptor: Agonist
[1]; Table 1, values marked *
  Dose in humans for anti-anxiety, anti-convulsive, or sedative effects: equivalent dose to 10 mg diazepam: 2 mg
[1]
  Dose in humans for anti-anxiety, anti-convulsive, or sedative effects (dose range, typical or average dose): 1 to 2 mg

## O=C1Nc2ccc(Cl)cc2C(c2ccccc2Cl)=NC1O (centres unmarked) [Lorazepam]
GABA-A receptor
  Effect at GABA-A receptor: Agonist High- potency
[1]; Table 1, values marked *
  Dose in humans for anti-anxiety, anti-convulsive, or sedative effects: equivalent dose to 10 mg diazepam: 1 mg

## CN1C(=O)C(O)N=C(c2ccccc2Cl)c2cc(Cl)ccc21 (centres unmarked) [Lormetazepam]
GABA-A receptor
  Effect at GABA-A receptor: Agonist Short- acting
[1]; Table 1, values marked *
  Dose in humans for anti-anxiety, anti-convulsive, or sedative effects: equivalent dose to 10 mg diazepam: 1.5 mg

## CN1CCN=C(c2ccccc2)c2cc(Cl)ccc21 [Medazepam]
GABA-A receptor
  Effect at GABA-A receptor: Agonist Long- acting
[1]; Table 1, values marked *
  Dose in humans for anti-anxiety, anti-convulsive, or sedative effects: equivalent dose to 10 mg diazepam: 10 mg

## Cc1ncc2n1-c1ccc(Cl)cc1C(c1ccccc1F)=NC2 [Midazolam]
GABA-A receptor
  Effect at GABA-A receptor: Agonist Short- acting
[1]; Table 1, values marked *
  Dose in humans for anti-anxiety, anti-convulsive, or sedative effects: equivalent dose to 10 mg diazepam: 7.5 mg

## CN1C(=O)CN=C(c2ccccc2)c2cc([N+](=O)[O-])ccc21 [Nimetazepam]
GABA-A receptor
  Effect at GABA-A receptor: Agonist
[1]; Table 1, values marked *
  Dose in humans for anti-anxiety, anti-convulsive, or sedative effects: equivalent dose to 10 mg diazepam: 5 mg

## O=C1CN=C(c2ccccc2)c2cc([N+](=O)[O-])ccc2N1 [Nitrazepam]
GABA-A receptor
  Effect at GABA-A receptor: Full agonist Long- acting
[1]; Table 1, values marked *
  Dose in humans for anti-anxiety, anti-convulsive, or sedative effects: equivalent dose to 10 mg diazepam: 10 mg

## O=C1CN=C(c2ccccc2)c2cc(Cl)ccc2N1 [Nordazepam]
GABA-A receptor
  Effect at GABA-A receptor: Partial agonist
[1]; Table 1, values marked *
  Dose in humans for anti-anxiety, anti-convulsive, or sedative effects: equivalent dose to 10 mg diazepam: 10 mg

## O=C1Nc2ccc(Cl)cc2C(c2ccccc2)=NC1O (centres unmarked) [Oxazepam]
GABA-A receptor
  Effect at GABA-A receptor: Agonist Short- acting
[1]; Table 1, 1 to 2 times daily
  Dose in humans, mild/moderate anxiety: 10 to 15 mg
[1]; Table 1, 3 to 4 times daily
  Dose in humans, severe anxiety: 15 to 30 mg
  Dose in humans, symptoms related to alcohol withdrawal: 15 to 30 mg
[1]; Table 1, values marked *
  Dose in humans for anti-anxiety, anti-convulsive, or sedative effects: equivalent dose to 10 mg diazepam: 20 mg

## O=C1CN=C(c2ccccc2Cl)c2cc(Br)ccc2N1 [Phenazepam]
GABA-A receptor
  Effect at GABA-A receptor: Agonist
[1]; Table 1, values marked *
  Dose in humans for anti-anxiety, anti-convulsive, or sedative effects: equivalent dose to 10 mg diazepam: 1 mg
[1]
  Dose in humans for anti-anxiety, anti-convulsive, or sedative effects (dose range, typical or average dose): 0.5 mg

## C#CCN1C(=O)CN=C(c2ccccc2)c2cc(Cl)ccc21 [Pinazepam]
GABA-A receptor
  Effect at GABA-A receptor: Agonist
[1]; Table 1, values marked *
  Dose in humans for anti-anxiety, anti-convulsive, or sedative effects: equivalent dose to 10 mg diazepam: 20 mg

## O=C1CN=C(c2ccccc2)c2cc(Cl)ccc2N1CC1CC1 [Prazepam]
GABA-A receptor
  Effect at GABA-A receptor: Agonist (Prodrug)
[1]; Table 1, values marked *
  Dose in humans for anti-anxiety, anti-convulsive, or sedative effects: equivalent dose to 10 mg diazepam: 20 mg

## Cc1c2c(cn1C)NC(=O)CN=C2c1ccccc1 [Premazepam]
GABA-A receptor
  Effect at GABA-A receptor: Partial agonist
[1]; Table 1, values marked *
  Dose in humans for anti-anxiety, anti-convulsive, or sedative effects: equivalent dose to 10 mg diazepam: 15 mg

## Cc1nnc2n1-c1ccc(Br)cc1C(c1ccccn1)=NC2 [Pyrazolam]
GABA-A receptor
  Effect at GABA-A receptor: Agonist
[1]; Table 1, values marked *
  Dose in humans for anti-anxiety, anti-convulsive, or sedative effects: equivalent dose to 10 mg diazepam: 1 mg

## CN1C(=O)C(O)N=C(c2ccccc2)c2cc(Cl)ccc21 (centres unmarked) [Temazepam]
GABA-A receptor
  Effect at GABA-A receptor: Agonist
[1]; Table 1, values marked *
  Dose in humans for anti-anxiety, anti-convulsive, or sedative effects: equivalent dose to 10 mg diazepam: 20 mg

## CN1C(=O)CN=C(C2=CCCCC2)c2cc(Cl)ccc21 [Tetrazepam]
GABA-A receptor
  Effect at GABA-A receptor: Agonist
[1]
  Dose in humans for anti-anxiety, anti-convulsive, or sedative effects, per day: 50 to 300 mg/day
[1]; Table 1, values marked *
  Dose in humans for anti-anxiety, anti-convulsive, or sedative effects: equivalent dose to 10 mg diazepam: 100 mg

## CCC1C(C)=NN=C(c2ccc(OC)c(OC)c2)c2cc(OC)c(OC)cc21 (centres unmarked) [Tofisopam]
GABA-A receptor
  Effect at GABA-A receptor: Agonist
[1]
  Dose in humans for anti-anxiety, anti-convulsive, or sedative effects, per day: Typical dose 50- 300 mg/day in divided doses

## CCN(C(C)=O)c1cccc(-c2ccnc3c(C#N)cnn23)c1 [Zaleplon]
GABA-A receptor; Table 2, exemplary SS-PAMs
  Effect at GABA receptor: Full agonist α1 selective Acts on α2,3 at higher doses Ultra short- acting
[1]; Table 2
  Dose in humans for anti-anxiety, anti-convulsive, or sedative effects (marked *): 20 mg

## CN1CCN(C(=O)OC2c3nccnc3C(=O)N2c2ccc(Cl)cn2)CC1 (centres unmarked) [Zopiclone]
GABA-A receptor; [2]
  Effect at GABA receptor: Full agonist
[1]; Table 4, values marked *
  Dose in humans for anti-anxiety, anti-convulsive, or sedative effects: equivalent dose to 10 mg diazepam: 15 mg
